Assay results as given in patent US20070105944A1, “Taxane metabolites” (priority 2002, published 2007).
Where “and” joins values, the source holds several entries; their conditions need not be identical. Equal values may be shown once.

What was measured:
[1] = up to 160 mg/kg/day, Suffness et al.; cited from earlier work
sc M109 = assay type: in vivo; settings: oral doses as high as 160 mg/kg/inj, murine tumor models (sc M109)
From the text: […]; see Eiseman et al., Second NCI Workshop on Taxol and Taxus (September 1992); Suffness et.al. in TAXOL Science and Applications (CRC Press 1995). […]. Another report by J. Terwogt et. al. from The Lancet, Jul. […] […].

human tumor xenografts = experiment: Oral paclitaxel against human tumor xenografts in athymic mice or rats; settings: human tumor xenografts implanted in athymic mice or athymic rats
[2] = oral; quote from WO98/53811; cited from earlier work
[3] = prior art; cited from earlier work
[4] = Biotransformation of [14C]Compound I in bile duct cannulated rats after a single oral dose; assay type: in vivo, rat; settings: single 25-mg/kg oral dose
From the text: A single 25-mg/kg oral dose of [^14C] Compound I, as a solution in cremophore
EL/ethanol/water (10:10:80, v/v/v), was separately administered to two male bile duct cannulated (BDC) rats. Within 24 hr after dosing, an average of 25.8% of the administered dose was excreted in bile, The corresponding value in urine was 3.9%. […] Thus, the oral absorption of [^14C] Compound I in rats was estimated to be at least 30%. Following the oral dose, the concentration of total radioactivity in plasma was measurable up to 24 hr and averaged 349 ng-equiv./mL at that time. The parent drug was a prominent radioactive component in plasma. At 24 hr after dosing, the concentration of Compound I in plasma was estimated to be 61 ng/mL. More than 20 hydrolytic and oxidative metabolites of [^14C] Compound I were detected in plasma.
Bile duct and jugular vein cannulated (BDC/JVC) male Sprague-Dawley rats (Hla®: [SD] CVF®, 6-10 weeks old and weighing 300±50 g at dosing), were purchased from Hilltop Laboratories (Scottdale, Pa.). Upon receipt, each rat was marked on the tail and given an ear tag with a unique identification number.
The dosing solution was prepared as follows: 7.96 mg of non-radiolabeled Compound I, 10.16 mg of [^13C] Compound I and 2.99 mg of [^14C] Compound I (77.7 μCi of radioactivity) were weighed into a vial. The compounds were then dissolved in 1.6 mL of a cremophore EL/ethanol solution (1:1, v/v) and diluted with 6.4 mL of sterile water. The total weight of the dosing solution was 7.53 g. The concentration of [^14C] Compound I in the dosing solution was […] (10.32 μCi/g) of solution. The nominal specific activity was 3.68 μCi/mg (8170 dpm/μg).
Two rats, housed individually in Nalgene metabolic cages, were each given a single 25-mg/kg nominal dose of [^14C] Compound I orally by gavage. The actual amount of dosing solution administered to each animal was determined by weighing the loaded dosing syringe before dose administration and the emptied syringe after dose administration. Bile was collected from each animal between −1-0 (pre-dose), 0-6, 6-12, and 12-24 hr after dosing. Urine was collected between −24-0 (predose), 0-12, and 12-24 hr after dosing. Both the bile and urine samples were collected in tubes set on dry ice. At 0.5, 6, and 12 hr after dosing, blood samples (−1.2 mL) were collected from the jugular vein cannula into a heparinized syringe. At 24 hr after dosing, animals were sacrificed by CO2 asphyxiation. Terminal blood was collected by cardiac puncture into a heparinized vacutainer. Predose blood sample was collectd from a separate control animal. Blood was centrifuged at 2,500 rpm and 4° C. for 10 min to separate the plasma. Bile, urine, and plasma samples were weighed and stored at −20° C. prior to analysis.
Concentrations of radioactivity in bile, urine, and plasma samples were determined by counting duplicate aliquots of each sample in 5 mL of Ready Value™ cocktail (Beckman Instrunents, Inc.) with a Beckman LS 3801, LS 5000TD, or LS6000TA Liquid Scintillation Counter for 10 min or until the 2-sigma error was less than or equal to 2%, whichever came first. Quench correction was performed using an external standard method. Most of the HPLC fractions used to prepare reconstructed HPLC chromatograms were counted for 5 minutes except for plasma samples, which were counted for 10 minutes.
A portion (−20% of each sample) of the 0-6, 6-12, and 12-24 hr bile samples from two rats were pooled by interval to prepare three pooled samples. A portion (−20% of each sample) of the 0-6, 6-12, and 12-24 hr bile samples from two rats were pooled together to prepare a 0-24 hr sample. Duplicate 10-μL aliquots of each pooled sample were taken for radioactivity counting.
A portion (−20% of each sample) of the 0-12 and 12-24 hr urine samples from two rats were pooled by interval to prepare two pooled samples. […]

[5] = Rank order of metabolic stability in liver microsomes of the five species; assay type: in vitro ADME; settings: 1 hr incubation
Description: (§1) Each mL of the incubation mixture, in 100 mM of potassium phosphate buffer (pH 7.4), contained: 20 nmol of test article, 1 mg of microsomal protens, 3 μmol of NADPH and 10 μmol of magnesium chloride. The final concentrations were: test article, 20 μM; microsomal proteins, 1 mg/mL; NADPH, 3 mM; magnesium chloride, 10 mM; acetonitrile, 1% (v/v). 7-EC (100 μM) was used as the positive control for enzyme activity in the microsomes of all species. Two negative controls, one without NADPH and the other using heat-treated microsomes (5 min in boiling water), were carried out to determine the stability of the test article. The total volume of incubation mixture was 5 mL each for the test article incubations and 1 mL each for the positive and negative controls.
Incubations were carried out aerobically at 37° C. with constant shaking. Incubation mixtures were prepared at 0-4° C. (on ice). […] At the end of incubation, duplicate aliquots (10 μL) of the incubation mixture of the negative controls and the test article incubations were taken for liquid scintillation counting of radioactivity. […]
[^14C]Compound I was separately incubated with mouse, rat, dog, monkey and human liver microsoomes fortified with NADPH for 1 hr at 37° C. The incubation mixtures were extracted with methanol and the extacts were analyzed by HPLC radiochromatograpby and LC/RAM/(+)ESI-MS and MS/MS.

[6] = [14C]Compound I incubation with rat liver microsomes (RLM), metabolite profile; assay type: in vitro ADME; settings: 1 hr incubation, 37° C., 20 μM, NADPH
Description: as §1, with “The total volume of incubation mixture was 5 mL each for the test article incubations and 1 mL each for the positive and negative controls.” left out
(§2) Incubations were carried out aerobically at 37° C. with constant shaking. […] At the end of incubation, duplicate aliquots (10 μL) of the incubation mixture of the negative controls and the test article incubations were taken for liquid scintillation counting of radioactivity. […]
(§3) The radiochemical purity of [^14C]Compound I and the metabolite profiles of the compound in the methanol extract of liver microsomal incubations were determined by HPLC radiochromatograpby using the following system:
(§4) Fractions of the HPLC effluent were collected (0.25 min/fraction) into a 96-well deep luma plates and the collected fractions were dried using Savant Automatic SpeedVac system. Radioactivity was then determined with a Packard Top Count-NXT counter. […]

[7] = [14C]Compound I incubation with dog liver microsomes (DLM), metabolite profile; assay type: in vitro ADME; settings: 1 hr incubation, 37° C., 20 μM, NADPH
Description: as §1, with “The total volume of incubation mixture was 5 mL each for the test article incubations and 1 mL each for the positive and negative controls.” left out
as §2, §3, §4

[8] = [14C]Compound I incubation with mouse liver microsomes (MLM), metabolite profile; assay type: in vitro ADME; settings: 1 hr incubation, 37° C., 20 μM, NADPH
Description: as §1, with “The total volume of incubation mixture was 5 mL each for the test article incubations and 1 mL each for the positive and negative controls.” left out
as §2, §3, §4

[9] = [14C]Compound I incubation with monkey liver microsomes (MKLM), metabolite profile; assay type: in vitro ADME; settings: 1 hr incubation, 37° C., 20 μM, NADPH
Description: as §1, with “The total volume of incubation mixture was 5 mL each for the test article incubations and 1 mL each for the positive and negative controls.” left out
as §2, §3, §4

[10] = [14C]Compound I incubation with human liver microsomes (HLM), metabolite profile; assay type: in vitro ADME; settings: 1 hr incubation, 37° C., 20 μM, NADPH
Description: as §1, with “The total volume of incubation mixture was 5 mL each for the test article incubations and 1 mL each for the positive and negative controls.” left out
as §2, §3, §4

tumors = settings: Proc Am Assoc Cancer Res 1999 40 Abs 1905; cited from earlier work
[11] = BDC rats, within 24 hr, average of two rats, total radioactivity

CC(=O)O[C@H]1C(=O)[C@@]2(C)[C@H]([C@H](OC(=O)c3ccccc3)[C@]3(O)C[C@H](OC(=O)[C@H](O)[C@@H](NC(=O)c4ccccc4)c4ccccc4)C(C)=C1C3(C)C)[C@]1(OC(C)=O)CO[C@@H]1C[C@@H]2O [paclitaxel]
antitumor activity on oral administration [1]: no evidence of antitumor activity | efficacy after oral dosing (sc M109): without signs of any efficacy | attempts to demonstrate activity for orally administered drug (human tumor xenografts): unsuccessful | absorbed when administered orally [2]: less than 1% | oral activity in human or animal models [3]: no oral activity

CC(=O)O[C@@]12CO[C@@H]1C[C@H](O)[C@@]1(C)C(=O)[C@H](O)C3=C(C)[C@@H](OC(=O)[C@H](O)[C@@H](NC(=O)OC(C)(C)C)c4ccccc4)C[C@@](O)([C@@H](OC(=O)c4ccccc4)[C@H]21)C3(C)C [TAXOTERE®, docetaxel]
oral activity in human or animal models [3]: no oral activity

COC(=O)O[C@@]12CO[C@@H]1C[C@H](O)[C@@]1(C)C(=O)[C@H](OC(C)=O)C3=C(C)[C@@H](OC(=O)[C@H](O)[C@@H](NC(=O)OC(C)(C)C)C(C)(C)C)C[C@@](O)([C@@H](OC(=O)c4ccccc4)C12)C3(C)C (some centres unmarked) [Compound I, 3′-tert-butyl-3′-N-tert-butyloxycarbonyl-4-deacetyl-3′-dephenyl-3′-N-debenzoyl-4-O-methoxycarbonyl-paclitaxel]
total recovery of the administered dose in bile and urine ([4]; BDC rats, 24 hr, average): 29.6% | administered dose excreted in bile [4, 11]: 25.8% | administered dose excreted in urine [4, 11]: 3.9% | concentration at 24 h ([4]; male, Sprague-Dawley, rat, rats, at 24 hr after dosing, pooled plasma, read-out: concentration of Compound I in plasma (estimated)): 61 ng/mL | parent drug detected in bile, % of total radioactivity ([4]; rats, 0-24 h pooled bile): < 1% | concentration of total radioactivity in plasma ([4]; rats, at 24 hr, average): 349 ng-equiv./mL | oral absorption (estimated) ([4]; rats, from bile and urine recovery): at least 30% | parent drug detected in urine ([4]; rats, pooled urine): ≤ 1% | rank order of metabolic stability in the liver microsomes of the five species [5]: rat>dog>mouse>human>monkey | parent drug in the incubation mixture remained unchanged [6]: 72.5% | parent drug in the incubation mixture remained unchanged [7]: 59.7% and 58.7% | parent drug in the incubation mixture remained unchanged [8]: 31.5% | parent drug in the incubation mixture remained unchanged [9]: 2.9% | parent drug in the incubation mixture recovered unchanged [10]: 21.4%

O=C(O)CNC(=O)c1ccccc1 [Metabolite M3, hippuric acid]
% of the dose in urine accounted for by metabolite(s) ([4]; rats, 0-24 hr pooled urine): ~2.3% | % of total radioactivity in urine accounted for by metabolite(s) ([4]; rats, 0-24 hr pooled urine): ~56% and ~60%

CC(=O)O[C@H]1C(=O)[C@@]2(C)[C@H]([C@H](OC(=O)c3ccccc3)[C@]34OC(=O)O[C@H]3[C@H](OC(=O)[C@H](O)[C@H](CC(C)C)NC(=O)OC(C)(C)C)C(C)=C1C4(C)C)[C@]1(OC(C)=O)CO[C@@H]1C[C@@H]2O [IDN-5109]
activity against tumors in mice after oral administration (tumors): oral activity
